This note sets out measurements from article PMC5077133, “Towards Development of Small Molecule Lipid II Inhibitors as Novel Antibiotics” (PLoS ONE, 2016).

SMILES strings stand for the structures. Where two headings read alike, the source gives them in different places. A value given as a limit tells only on which side of the number the result lay.

One data set relates to P. aeruginosa ATCC 27853. In words: Antibacterial activity (MIC, broth dilution). The class given is cell-based. As to conditions: CLSI. How it is done:
(§1) Determination of the Minimal Inhibitory Concentrations (MIC) by dilution was carried out by broth dilution according to CLSI standards.

In a further data set the test system is E. faecium EF1509 (VRE). The data set can be described thus: Antibacterial activity (MIC, broth dilution). To be noted: CLSI, in µg/mL. The class given is cell-based. How it is done:
as §1

Another data set concerns E. faecium F118 (VRE). The data set can be described thus: Antibacterial activity (MIC, broth dilution). The class given is cell-based. As to conditions: CLSI, in µg/mL. How it is done:
as §1
In general terms: Dilution methods test growth across graded concentrations, often in twofold steps.

The nature of data set [1]: Plasma protein binding (Transil). Format: in vitro ADME. As to conditions: human, TRANSIL XL PPB plates (human plasma protein beads). How it is done: Human plasma protein binding was determined using TRANSIL^XL PPB plates (Sovicell, Leipzig, Germany). The compound 6jc48-1 (15 ul, 32% DMSO stock solution) was added to each well of a column (8 wells total) on a room temperature equilibrated plate. The plate was incubated for twelve minutes on a shaker at 1000 rpm then centrifuged for 10 minutes at 750 × g to sediment the beads from the suspension. Aliquots (100 ul) were transferred from the supernatants to 96-well plate for MS analysis. Plasma protein binding data analysis was completed by using the supplied spreadsheet from the manufacturer (Sovicell, User Guide TRANSIL PPB binding kit V2.01, 2013).

The subject of data set [2] is lipid synthesis in E. faecalis EF1509. The data set can be described thus: Macromolecular synthesis assay: lipid synthesis. The class given is cell-based. As to conditions: Enterococcus faecalis; E. faecalis EF1509, [3H] glycerol incorporation; read-out: IC50 inhibition of lipid synthesis. How it is done: The effect of compounds on the macromolecular synthetic pathways of E. faecalis EF1509 were measured as follows: Cells were grown at 35°C overnight on Tryptic Soy Agar Broth (Remel, Lenexa, KS), and growth from the plate was used to inoculate 15 ml of Mueller Hinton Broth. The culture was grown to early exponential growth phase (OD600 = 0.2 to 0.3) while incubating in a shaker at 35°C and 150 rpm. For each macromolecular assay, the test agents were added at either 0, 0.25, 0.5, 1, 2, or 4, -fold their respective MIC values for E. faecalis EF1509.
For lipid synthesis, bacterial cells were grown to early exponential growth phase in MHB and 100 μl was added to 1.5 ml Eppendorf tubes (in triplicate) containing various concentrations of test compound or control antibiotics as described above. Following a 5 min incubation at room temp., [^3H] glycerol was added at 0.5 μCi per reaction. Reactions were allowed to proceed at room temperature for 40 min and then stopped through the addition of 375 μl of chloroform/methanol (1:2) followed by vortexing for 20 sec after. Chloroform (125 μl) was then added to each reaction and vortexed, followed by the addition of 125 μl dH2O and vortexing. […] Samples were then counted via liquid scintillation counting. […]

The subject of data set [3] is cell wall synthesis in E. faecalis EF1509. The data set can be described thus: Macromolecular synthesis assay: cell wall synthesis. To be noted: Enterococcus faecalis; E. faecalis EF1509, [14C] N-acetyl-glucosamine incorporation; read-out: IC50 inhibition of cell wall synthesis. Format: cell-based. How it is done: The effect of compounds on the macromolecular synthetic pathways of E. faecalis EF1509 were measured as follows: Cells were grown at 35°C overnight on Tryptic Soy Agar Broth (Remel, Lenexa, KS), and growth from the plate was used to inoculate 15 ml of Mueller Hinton Broth. The culture was grown to early exponential growth phase (OD600 = 0.2 to 0.3) while incubating in a shaker at 35°C and 150 rpm. For each macromolecular assay, the test agents were added at either 0, 0.25, 0.5, 1, 2, or 4, -fold their respective MIC values for E. faecalis EF1509. […] For cell wall synthesis, bacterial cells in early exponential growth phase were transferred to M9 minimal medium and added to 1.5 ml eppendorf tubes (100 μl/tube) containing various concentrations of test compound or control antibiotics (2.5 μl) at 40X the final concentration in 100% DMSO as described above. Following a 5 min incubation at 37°C, [^14C] N-acetyl-glucosamine (0.4 μCi/reaction) was added to each tube and incubated for 45 min in a 37°C heating block. Reactions were stopped through the addition of 100 μl of 8% SDS to each tube. […] After washing three times with 5 ml of 0.1% SDS, the filters were rinsed two times with 5 ml of deionized water, allowed to dry, and then counted using a Beckman LS3801 liquid scintillation counter.

A further data set deals with T1, CYP2C19 (Homo sapiens, UniProt P33261).
T1 construct: purchased Corning
T1 sequence (P33261 whole entry): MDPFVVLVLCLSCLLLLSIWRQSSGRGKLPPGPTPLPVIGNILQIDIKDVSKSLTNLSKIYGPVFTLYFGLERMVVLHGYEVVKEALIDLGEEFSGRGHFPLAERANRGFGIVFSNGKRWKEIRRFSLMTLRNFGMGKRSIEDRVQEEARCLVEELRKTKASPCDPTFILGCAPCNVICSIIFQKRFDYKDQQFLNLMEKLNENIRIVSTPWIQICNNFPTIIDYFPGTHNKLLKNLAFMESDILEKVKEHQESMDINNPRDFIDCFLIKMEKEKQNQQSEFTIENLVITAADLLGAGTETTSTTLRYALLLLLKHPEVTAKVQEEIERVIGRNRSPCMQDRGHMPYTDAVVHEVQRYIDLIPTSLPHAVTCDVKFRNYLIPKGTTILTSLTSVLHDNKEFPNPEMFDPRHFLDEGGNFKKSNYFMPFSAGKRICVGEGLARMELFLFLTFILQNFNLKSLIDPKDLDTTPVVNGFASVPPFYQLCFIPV
In words: Cytochrome P450 inhibition. As to conditions: recombinant human CYP2C19 (Supersomes), pH 7.4, probe CEC, IC50 fluorescence, substrate CEC, read-out: P450 enzyme inhibition IC50 CYP2C19/CEC. Format: in vitro ADME. How it is done:
(§2) The final concentration of each substrate was 1 μM.
(§3) Computation of IC50 values:The background of no-enzyme samples to determine the background value were averaged. The positive control or full-reaction samples to determine the signal value were averaged.
(§4) The percent activity of each sample was calculated as follows:
(§5) [(Test compound metabolite–average background)/(average signal–average background)] X 100 = % activity
(§6) The the IC50 value using non-linear regression was calculated.

The target in another data set is T2, CYP2D6 (Homo sapiens, UniProt P10635).
T2 construct: purchased Corning
T2 sequence (P10635 whole entry): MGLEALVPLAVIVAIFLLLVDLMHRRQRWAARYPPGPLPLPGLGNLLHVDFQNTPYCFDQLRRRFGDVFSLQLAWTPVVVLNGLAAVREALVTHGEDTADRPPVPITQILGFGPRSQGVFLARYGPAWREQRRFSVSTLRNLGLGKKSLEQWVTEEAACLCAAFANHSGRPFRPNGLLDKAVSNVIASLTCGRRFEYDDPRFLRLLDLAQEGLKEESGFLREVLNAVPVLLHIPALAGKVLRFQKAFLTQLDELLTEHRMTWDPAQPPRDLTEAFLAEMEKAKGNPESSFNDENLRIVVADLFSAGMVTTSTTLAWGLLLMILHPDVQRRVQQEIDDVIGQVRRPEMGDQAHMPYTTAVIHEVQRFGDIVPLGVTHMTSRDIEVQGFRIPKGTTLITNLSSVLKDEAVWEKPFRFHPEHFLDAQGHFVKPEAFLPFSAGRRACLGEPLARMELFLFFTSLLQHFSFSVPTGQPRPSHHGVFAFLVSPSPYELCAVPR
In words: Cytochrome P450 inhibition. To be noted: recombinant human CYP2D6 (Supersomes), pH 7.4, probe AMMC, IC50 fluorescence, substrate AMMC, read-out: P450 enzyme inhibition IC50 CYP2D6/ AMMC. The class given is in vitro ADME. How it is done: as §2, §3, §4, §5, §6

A further data set concerns the target T3, CYP3A4 (Homo sapiens, UniProt P08684).
T3 construct: purchased Corning
In words: Cytochrome P450 inhibition. Format: in vitro ADME. To be noted: IC50 fluorescence. How it is done: as §2, §3, §4, §5, §6

Data set [4] in a line: Solubility in water (laser nephelometry). Format: physicochemical. To be noted: n=3. How it is done: Solubility in water was determined using a NEPHELOstar^plus laser nephelometer (BMG Labtech, Cary, NC) at a wavelength of 635 nm and bottom read optics using a 96-well plate format. A solution of 6jc48-1 was prepared at a concentration of 2.5 mg/ml in DMSO. The DMSO solution (10 μl) was added to wells containing water (290 μl) for a final concentration of 125 μg/ml. The plate was incubated at room temperature for two hours prior to reading in the nephalometer. All samples were run in triplicate. Control samples (DMSO with no analyte) were prepared and run in parallel.

T3 sequence (P08684 whole entry): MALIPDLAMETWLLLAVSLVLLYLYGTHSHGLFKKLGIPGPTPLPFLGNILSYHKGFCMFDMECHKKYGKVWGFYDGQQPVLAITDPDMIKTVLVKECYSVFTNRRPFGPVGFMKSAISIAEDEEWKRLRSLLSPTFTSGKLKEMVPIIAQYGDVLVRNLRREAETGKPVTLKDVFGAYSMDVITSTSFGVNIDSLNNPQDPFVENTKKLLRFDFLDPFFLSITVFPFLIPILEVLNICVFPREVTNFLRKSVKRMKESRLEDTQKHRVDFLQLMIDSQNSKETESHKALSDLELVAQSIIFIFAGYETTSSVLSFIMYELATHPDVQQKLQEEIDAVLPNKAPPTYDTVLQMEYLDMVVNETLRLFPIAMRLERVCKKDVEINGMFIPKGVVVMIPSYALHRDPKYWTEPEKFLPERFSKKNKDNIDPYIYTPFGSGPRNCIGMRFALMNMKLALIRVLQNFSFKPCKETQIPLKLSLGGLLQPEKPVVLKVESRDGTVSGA

As a reminder, the fraction unbound is the share of the substance not bound to proteins or other matrix. Low readings indicate extensive binding, high ones weak binding. The term solubility denotes how much of the substance goes into solution per volume. Read a low solubility as little dissolved substance. Consider `CN(C)c1ccc(/C=C/c2cc(-c3ccc(Br)cc3)cc(-c3ccc(Br)cc3)[o+]2)cc1` [6jc48-1], for which the Antibacterial activity (MIC) P. aeruginosa ATCC 27853 in the data set with P. aeruginosa ATCC 27853 is ≥ 64 µg/mL. The “Antibacterial activity (MIC) E. faecium EF1509 (VRE)” value in the data set on E. faecium EF1509 (VRE) is given as 2.828. Moreover, in the data set on E. faecium F118 (VRE), the “Antibacterial activity (MIC) E. faecium F118 (VRE)” value is given as 5.657. The fraction unbound at 12 min in data set [1] was 0.11. The IC50 was 7.8 µg/mL in [2]; 3.8 µg/mL in [3]; > 10 µM at CYP2C19; > 10 µM at CYP2D6; 1.3 µM at CYP3A4 (substrate BFC, read-out: P450 enzyme inhibition IC50 CYP3A4/ BFC); > 10 µM on CYP3A4 (human, recombinant human CYP3A4 (Supersomes), pH 7.4, probe DBF, substrate DBF, read-out: P450 enzyme inhibition IC50 CYP3A4/ DBF). Also, the solubility at 2 h in [4] was > 50 µg/mL.

For `CN1/C(=C/C=C/c2cc(-c3ccccc3)cc(-c3ccccc3)[o+]2)C(C)(C)c2ccccc21` [BAS-00127538, (1-Methyl-2,4-diphenyl-6-((1E,3E)-3-(1,3,3-trimethylindolin-2-ylidene)prop-1-en-1-yl)pyryl-1-ium) tetrafluoroborate, reference compound], the results for the IC50 in data set [2] and in data set [3] were 2.3 µg/mL and 1.1 µg/mL, respectively.
